Data on 32 compounds can be found in patent publication US7238697B2, “Pyridylpyrimidines for use as pesticides” (Bayer CropScience AG, priority 2001, dated 2007).

For data set [1], the system named is peach aphids (Myzus persicae). Description: Myzus test (cabbage leaves dipped). The settings on record: 144 h, after 6 d, read-out: Kill rate in % after 6 d; for pest or weed control at 500 ppm: solvent 7 parts DMF, emulsifier 2 parts (Table D-2); for pest or weed control at 100 ppm / pest or weed control at 1000 ppm: solvent 30 parts DMF, emulsifier 1 part (Table D-1). The class given is in vivo. The method, then:
To produce a suitable preparation of active compound, 1 part by weight of active compound is mixed with the stated amounts of solvent and emulsifier, and the concentrate is diluted with emulsifier-containing water to the desired concentration. Cabbage leaves (Brassica oleracea) which are heavily infested by peach aphids (Myzus persicae) are treated by being dipped into the preparation of the active compound of the desired concentration. After the desired period of time, the kill in % is determined. 100% means that all aphids have been killed; 0% means that none of the aphids has been killed.

A short description of data set [2]: log P determination by HPLC (reversed-phase C18), EEC Directive 79/831 Annex V.A8. The format is physicochemical. The following applies: reversed-phase C18 HPLC column; pH 2.3; HPLC, reversed-phase C 18, 43° C., 0.1% aqueous phosphoric acid/acetonitrile; read-out: log P (pH 2.3).

Structures are written as SMILES.

As to `NC(=O)CCSc1nccc(-c2ccccn2)n1` [drawing 437], the pest or weed control at 500 ppm in data set [1] is 80%.
In the case of `CCOC(=O)CSc1nccc(-c2cc(OC)ccn2)n1` [drawing 439], in data set [1], the pest or weed control at 500 ppm was 90%.
Still for that read-out and setting: in the case of `CC(C)OC(=O)C(C)OC(=O)CSc1nccc(-c2ccccn2)n1` (centres unmarked) [drawing 434] it was 95%.
Take `COC(=O)C(Sc1nccc(-c2ccccn2)n1)C(=O)OC` [drawing 421]: the pest or weed control at 100 ppm in data set [1] turned out to be 95%.
On to `O=C(CSc1nccc(-c2ccccn2)n1)OCC(F)=C(Cl)Cl` [drawing 431], for which the pest or weed control at 500 ppm in data set [1] stood at 100%.
Same read-out and setting: in the case of `COCN(C)C(=O)COC(=O)CSc1nccc(-c2ccccn2)n1` [drawing 430] it was 98%; in that of `CCC1(COC(=O)CSc2nccc(-c3ccccn3)n2)CCO1` (centres unmarked) [drawing 428], 98%.
Regarding `COC(=O)CSc1nccc(-c2ccccn2)n1` [drawing 415], in data set [1], the pest or weed control at 100 ppm was found to be 100%.
Take `NC(=O)CSc1nccc(-c2ccccn2)n1` [drawing 422]: the pest or weed control at 1000 ppm in data set [1] amounted to 95%.
Still for that read-out and setting: in the case of `COC(=O)CCCSc1nccc(-c2ccccn2)n1` [drawing 423] it was 100%; in that of `C=CCOC(=O)CSc1nccc(-c2ccccn2)n1` [drawing 419], 95%.
For the compound `CC(C)OC(=O)CSc1nccc(-c2ccccn2)n1` [drawing 418], the pest or weed control at 1000 ppm in data set [1] was determined as 100%.
With `O=C(CSc1nccc(-c2ccccn2)n1)OC1CC(F)(F)C1(F)F` (centres unmarked) [drawing 435], in data set [1], the pest or weed control at 500 ppm was determined as 100%.
For the compound `CC(C)(C)SC(=O)CSc1nccc(-c2ccccn2)n1` [drawing 438], the pest or weed control at 500 ppm in data set [1] stood at 95%.
Take `O=C(CSc1nccc(-c2ccccn2)n1)NC1CC1` [Example 69]: in data set [2], the chromatographic logP was 1.56.
On the same count and under the same terms, in the case of `CC(NC(=O)CSc1nccc(-c2ccccn2)n1)c1ccc(C(C)(C)C)cc1` (centres unmarked) [Example 43] it was 3.4; in that of `O=C(CSc1nccc(-c2ccccn2)n1)NO` [Example 36], 0.55; in that of `CCOC(=O)CN(C)c1nccc(-c2ccccn2)n1` [Example 6, ethyl N-methyl-N-[4-(2-pyridinyl)-2-pyrimidinyl]glycinate], 1.66.
Take `CCOC(=O)CSc1nccc(-c2ccc(Br)cn2)n1` [Example 305]: the chromatographic logP in data set [2] came to 3.39.
Still for that read-out and setting: in the case of `NC(=O)CSc1nccc(-c2ccccn2)n1` [Example 29] it was 0.69.
Same read-out and setting: the result for `CC(C)(F)COC(=O)CSc1nccc(-c2ccccn2)n1` [Example 196] reads 2.66; that for `CC(C)(C)C(Cl)COC(=O)CSc1nccc(-c2ccccn2)n1` (centres unmarked) [Example 205], 3.81; that for `O=C(CSc1nccc(-c2ccccn2)n1)NCc1ccco1` [Example 64], 1.82.
On the same count and under the same terms, in the case of `O=C(CSc1nccc(-c2ccccn2)n1)OCCc1ccncc1` [Example 204] it was 1.2.
Consider `O=C(CSc1nccc(-c2ccccn2)n1)NCCc1ccc(Cl)cc1Cl` [Example 41], for which, in data set [2], the chromatographic logP turned out to be 2.83.
The same measure, in the same setting: the result for `CCOC(=O)CNc1nccc(-c2ccccn2)n1` [Example 5, ethyl N-(4-(2-pyridinyl)-2-pyrimidinyl]glycinate] reads 1.14; that for `O=C(CSc1nccc(-c2ccccn2)n1)NCc1cccc(C(F)(F)F)c1` [Example 46], 2.62.
Still for that read-out and setting: the result for `O=C(CSc1nccc(-c2ccccn2)n1)OCCC(F)(F)F` [Example 122] reads 2.26.
The same measure, in the same setting: in the case of `CCOC(=O)c1cc(NC(=O)NCCCOC(=O)CSc2nccc(-c3ccccn3)n2)ccc1Cl` [Example 304] it was 5.37; in that of `COCNC(=O)OCCOC(=O)CSc1nccc(-c2ccccn2)n1` [Example 175], 1.64.
For `COc1ccc(CNC(=O)CSc2nccc(-c3ccccn3)n2)cc1` [Example 55], in data set [2], the chromatographic logP worked out at 2.
On the same count and under the same terms, in the case of `CCOC(=O)CN(CC)c1nccc(-c2ccccn2)n1` [Example 315] it was 2.13.
